Results: patent US10213438B2, “Alkaloid compounds for treating depression, substance addictions, and indications associated with chronic inflammation” (MyMD Pharmaceuticals, Inc., priority 2014, dated 2019)

How the values were obtained:
MAO-B = molecular target: T1, MAO-B (Homo sapiens, UniProt P27338); conditions: cited from earlier work
T1 sequence (P27338 1-520): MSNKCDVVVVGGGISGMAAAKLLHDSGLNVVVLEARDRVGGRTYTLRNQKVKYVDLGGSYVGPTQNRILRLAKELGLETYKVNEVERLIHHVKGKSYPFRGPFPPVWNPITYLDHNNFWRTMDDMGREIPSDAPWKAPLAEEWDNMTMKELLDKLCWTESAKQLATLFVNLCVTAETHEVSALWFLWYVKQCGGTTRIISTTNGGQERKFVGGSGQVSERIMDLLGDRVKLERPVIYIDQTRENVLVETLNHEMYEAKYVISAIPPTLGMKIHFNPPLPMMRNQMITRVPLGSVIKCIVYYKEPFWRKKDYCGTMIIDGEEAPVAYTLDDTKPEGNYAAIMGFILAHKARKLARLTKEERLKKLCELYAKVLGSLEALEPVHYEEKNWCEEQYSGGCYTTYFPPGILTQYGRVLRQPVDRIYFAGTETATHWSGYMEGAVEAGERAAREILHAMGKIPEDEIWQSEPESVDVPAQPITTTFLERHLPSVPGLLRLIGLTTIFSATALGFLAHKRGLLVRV

MAO-A [1] = molecular target: T2, MAO-A (Homo sapiens, UniProt P21397); conditions: cited from earlier work
T2 sequence (P21397 1-527): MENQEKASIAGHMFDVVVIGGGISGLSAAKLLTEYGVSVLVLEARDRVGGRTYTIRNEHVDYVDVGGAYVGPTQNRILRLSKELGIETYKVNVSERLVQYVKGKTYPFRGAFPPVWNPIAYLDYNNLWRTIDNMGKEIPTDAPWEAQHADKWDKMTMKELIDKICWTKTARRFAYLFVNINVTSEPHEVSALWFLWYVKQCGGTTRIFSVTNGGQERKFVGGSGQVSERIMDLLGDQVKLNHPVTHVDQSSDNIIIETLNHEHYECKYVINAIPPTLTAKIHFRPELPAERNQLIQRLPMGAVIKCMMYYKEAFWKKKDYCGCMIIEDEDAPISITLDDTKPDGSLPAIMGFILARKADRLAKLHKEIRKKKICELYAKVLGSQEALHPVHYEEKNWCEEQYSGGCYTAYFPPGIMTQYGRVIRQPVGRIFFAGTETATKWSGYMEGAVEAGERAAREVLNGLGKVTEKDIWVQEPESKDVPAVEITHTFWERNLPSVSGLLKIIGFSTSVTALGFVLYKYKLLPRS

COX-2 = assay: LPS-stimulated RAW cells, protein blot for COX-2 expression; assay type: cell-based, mouse; conditions: LPS stimulation, compound added after 15 minutes, harvest 24 hours later, FIG. 2
Method: (§1) This example illustrates in vitro studies of 2-(pyridin-3-yl)-2,3,4,7-tetrahydro-1H-azepine. For these experiments, the mouse macrophage cell line RAW 264.7 was used (referred to herein as RAW). The design of the experiments is the following:
(§2) RAW cells were plated in complete medium overnight. The following day, a known inflammatory stimulus (bacterial LPS) was added to the culture wells. Following a 15 minute stimulation, 2-(pyridin-3-yl)-2,3,4,7-tetrahydro-1H-azepine (7-MR) was added to the culture at different concentrations. Twenty-four hours later, RAW cells were harvested and their proteins extracted. Proteins were then run on a polyacrylamide gels and transferred to a nitrocellulose membrane. The membrane was finally probed with commercial antibodies against some classic inflammatory markers.
(§3) The following three inflammatory markers were tested:
COX-2 (antibody made by Cayman Chemical, catalog number 160106)

RAW macrophage cells = assay: assay of cell viability in RAW macrophage cells; assay type: cell-based, mouse; conditions: RAW 264.7 cells, FIG. 1
Method: as §1
Before testing the anti-inflammatory effect(s) of 2-(pyridin-3-yl)-2,3,4,7-tetrahydro-1H-azepine, an assay of cell viability was performed. […] Toxicity was only seen at higher doses (3 mM and above).

MAO-A [2] = molecular target: T2, MAO-A; assay: MAO-Glo luminescent assay, MAO-A; assay type: biochemical; conditions: 1 hour at room temperature, FIG. 5
Text: This example describes experiments for determining monoamine oxidase (MAO) inhibition for 2-(pyridin-3-yl)-2,3,4,7-tetrahydro-1H-azepine and other alkaloids. MAOs are enzymes located on the outer membrane of mitochondria and are involved in the catabolism of monoamine neurotransmitters. There are two well-characterized isoenzymes: MAO-A, which predominantly catabolizes serotonin and norepinephrine, and MAO-B, which preferentially catabolizes benzylamine and phenylethylamine. Dopamine and tyramine are metabolized by both isoforms.
To detect the activity of MAO, a luminescent method (MAO-Glo Assay kit, from Promega, Cat # V1401) was used. In this method, a MAO substrate (a derivative of beetle luciferin provided in the kit) is mixed with the compound to be tested (in this case, myosmine and control compounds). Then, the MAO enzymes (either A or B, purchased separately) are added to the mixture and incubated with the reaction for 1 hour at room temperature. The MAO enzymes, if not inhibited by the test compound, will convert the substrate into methyl ester luciferin. Finally, a luciferin detection reagent (provided by the kit) is added (20 minutes at room temperature) to stop the MAO reaction and convert methyl ester luciferin into D-luciferin. […] The luminescent signal is measured and recorded using a luminometer. […]

iNOS = assay: LPS-stimulated RAW cells, protein blot for iNOS expression; assay type: cell-based, mouse
Method: as §1, §2, §3
iNOS (SantaCruz Biotechnology, sc-650)

mice = conditions: cited from earlier work; for effect on dopamine levels: MPTP

SMILES	MAO inhibitory effects against MAO-B (MAO-B)	MAO inhibitory effects against MAO-A (MAO-A [1])	effect on dopamine levels (mice)	decrease in dopamine metabolite levels induced by MPTP (mice)	other results
C1=CCC(c2cccnc2)NC1 (stereo not shown) [anatabine]	exhibited MAO inhibitory effects	exhibited MAO inhibitory effects	–	–	–
C1=CCNC(c2cccnc2)CC1 (stereo not shown) [2-(pyridin-3-yl)-2,3,4,7-tetrahydro-1H-azepine]	–	–	–	–	expression of COX2 (COX-2): slightly; concentration not toxic to RAW macrophage cells (cell viability) (RAW macrophage cells): up to 2 mM; concentration at which toxicity was seen (cell viability) (RAW macrophage cells; higher doses): ≥ 3000 µM; inhibition of MAO-A (activity curve) (MAO-A [2]): found to inhibit MAO-A; expression of iNOS (iNOS; LPS stimulation, compound added after 15 minutes, harvest 24 hours later, FIGS. 2 and 3): decreased significantly; suppression of iNOS expression, separate experiments (iNOS; confirmation in separate experiments, FIG. 4): specifically suppressed iNOS
c1ccc(-c2ccncc2)cc1 [4-phenylpyridine]	–	–	no significant effect	prevented the decrease	–
CN1CCCC1c1cccnc1 (stereo not shown) [nicotine]	–	–	no significant effect	prevented the decrease	–
c1cncc([C@@H]2CCCN2)c1 [nornicotine]	exhibited MAO inhibitory effects	exhibited MAO inhibitory effects	–	–	–
c1cncc([C@@H]2CCCCN2)c1 [anabasine]	exhibited MAO inhibitory effects	exhibited MAO inhibitory effects	–	–	–
